# Target: Beta-2 adrenergic receptor (Rattus norvegicus) (UniProt P10608)
# Experiment: Compound was evaluated for its binding affinity to beta-2 receptor in rat brain using [3H]- DHA radioligand assay
# Chain of Beta-2 adrenergic receptor (Rattus norvegicus) (P10608 whole entry, looked up): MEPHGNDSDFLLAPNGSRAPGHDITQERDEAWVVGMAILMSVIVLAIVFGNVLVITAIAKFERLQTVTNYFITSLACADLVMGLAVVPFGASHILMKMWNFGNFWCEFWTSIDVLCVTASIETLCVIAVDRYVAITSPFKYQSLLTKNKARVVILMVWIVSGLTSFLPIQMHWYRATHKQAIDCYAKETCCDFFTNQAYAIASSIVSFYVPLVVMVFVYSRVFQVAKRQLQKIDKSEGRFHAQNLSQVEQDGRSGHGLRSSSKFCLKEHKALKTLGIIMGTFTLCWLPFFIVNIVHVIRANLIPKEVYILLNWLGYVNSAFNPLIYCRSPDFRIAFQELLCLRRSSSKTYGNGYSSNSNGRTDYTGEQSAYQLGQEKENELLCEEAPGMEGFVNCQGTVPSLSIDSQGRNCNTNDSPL
structure (smiles),measurement,value
COc1cccc2c1CCC[C@H]2CN(C)CCc1ccc2ccoc2c1 [A-80426],Ki,1.74 µM

# Reference: BindingDB's records for doi:10.1016/0960-894X(95)00398-D (1995)
